US20130274100A1, “Synergistic Fungicidal Active Substance Combinations” (priority 2005, published 2013)

Columns and labels:
Puccinia recondita = assay: Puccinia test (wheat)/protective; type: in vivo; conditions: protective spray, evaluation 10 days after inoculation
Text: The expected fungicidal action for a given combination of two active compounds can be calculated as follows, according to S. R. Colby (“Calculating Synergistic and Antagonistic Responses of Herbicide Combinations”, Weeds 1967, 15, 20-22): • X is the efficacy when employing active compound A at an application rate of m g/ha, • Y is the efficacy when employing active compound B at an application rate of n g/ha and • E is the efficacy when employing active compounds A and B at application rates of m and n g/ha, then Here, the efficacy is determined in %. 0% means an efficacy which corresponds to that of the control, whereas an efficacy of 100% means that no infection is observed. If the actual fungicidal action exceeds the calculated value, the action of the combination is superadditive, i.e. a synergistic effect is present. In this case, the actually observed efficacy must exceed the value calculated using the above formula for the expected efficacy (E). Puccinia Test (Wheat)/Protective Solvent: 50 parts by weight of N,N-dimethylacetamide Emulsifier: 1 part by weight of alkylaryl polyglycol ether To produce a suitable preparation of active compound, 1 part by weight of active compound is mixed with the stated amounts of solvent and emulsifier or a commercial active compound formulation, and the concentrate is diluted with water to the desired concentration. To test for protective activity, young plants are sprayed with the preparation of active compound at the stated application rate. After the spray coating has dried on, the plants are sprayed with a conidia suspension of Puccinia recondita. The plants remain in an incubation cabin at 20° C. and 100% relative atmospheric humidity for 48 hours. The plants are then placed in a greenhouse at a temperature of about 20° C. and a relative atmospheric humidity of 80% to promote the development of rust postules. Evaluation is carried out 10 days after the inoculation. 0% means inefficacy which corresponds to that of the control, whereas an efficacy of 100% means that no infection is observed.

[1] = test system: Erysiphe graminis f.sp. tritici; assay: Erysiphe test (wheat)/protective; type: in vivo; conditions: protective spray, application rate 62.5 g/ha, evaluation 7 days after inoculation
Text: The expected fungicidal action for a given combination of two active compounds can be calculated as follows, according to S. R. Colby (“Calculating Synergistic and Antagonistic Responses of Herbicide Combinations”, Weeds 1967, 15, 20-22): • X is the efficacy when employing active compound A at an application rate of m g/ha, • Y is the efficacy when employing active compound B at an application rate of n g/ha and • E is the efficacy when employing active compounds A and B at application rates of m and n g/ha, then Here, the efficacy is determined in %. 0% means an efficacy which corresponds to that of the control, whereas an efficacy of 100% means that no infection is observed. If the actual fungicidal action exceeds the calculated value, the action of the combination is superadditive, i.e. a synergistic effect is present. In this case, the actually observed efficacy must exceed the value calculated using the above formula for the expected efficacy (E). Erysiphe Test (Wheat)/Protective Solvent: 50 parts by weight of N,N-dimethylacetamide Emulsifier: 1 part by weight of alkylarylpolyglycol ether To produce a suitable preparation of active compound, 1 part by weight of active compound is mixed with the stated amounts of solvent and emulsifier or a commercial active compound formulation, and the concentrate is diluted with water to the desired concentration. To test for protective activity, young plants are sprayed with the preparation of active compound at the stated application rate. After the spray coating has dried on, the plants are dusted with spores of Erysiphe graminis f.sp. tritici. The plants are placed in a greenhouse at a temperature of about 20° C. and a relative atmospheric humidity of about 80% to promote the development of mildew pustules. Evaluation is carried out 7 days after the inoculation. 0% means an efficacy which corresponds to that of the control, whereas an efficacy of 100% means that no infection is observed.

SMILES	Efficacy in % found (Puccinia recondita; application rate 125 g/ha) [%]	Efficacy in % found (Puccinia recondita; application rate 250 g/ha) [%]	Efficacy in % found [1] [%]
CC(C)CC(C)c1sccc1NC(=O)c1cn(C)nc1C(F)(F)F (stereo not shown) [(1-1), N-[2-(1,3-dimethylbutyl)-3-thienyl]-1-methyl-3-(trifluoromethyl)-1H-pyrazole-4-carboxamide]	33	67	0
Cc1cc(C2CC2)nc(Nc2ccccc2)n1 [(9-1), Cyprodinil]	0		0
CCCC1COC(Cn2cncn2)(c2ccc(Cl)cc2Cl)O1 (stereo not shown) [(3-3), Propiconazole]	56		29
CC(C1CC1)C(O)(Cn1cncn1)c1ccc(Cl)cc1 (stereo not shown) [(3-6), Cyproconazole]	94		57
CO/C=C(/C(=O)OC)c1ccccc1COc1cccc(C(F)(F)F)n1 [(2-9), Picoxystrobin]		94	71
CCCCC(O)(Cn1cncn1)c1ccc(Cl)cc1Cl (stereo not shown) [(3-7), Hexaconazole]	78		29
